Assay results reported in US6403618B1, “Agent and method for controlling angiogenesis” (Novactyl, Inc., priority 2000, dated 2002).

Key:
LoVo cells [1] = experiment: Effect of different doses of fusaric acid on total cell protein; assay type: cell-based
Protocol: (§1) In initial experiments to examine the effects of fusaric acid on cell growth and viability, WI-38 and LoVo cells were incubated for 24 to 72 hours in medium with or without various doses of fusaric acid (0.1-1 mM). The growth of both WI-38 and LoVo cells was inhibited by 500 μM fusaric acid in a time and dose dependent manner, as shown below in Table 2.

WI-38 cells [2] = experiment: as above; assay type: cell-based; settings: WI-38, 1 mM
Protocol: as §1

WI-38 cells [3] = experiment: Effect of fusaric acid on growth (cell number); assay type: cell-based
Description: The remaining cells were spread on the substratum in normal manner without any visible mitosis for 4 days after removal of the drug.

[4] = tested on: colon carcinoma LoVo cells; experiment: Effect of fusaric acid on growth (cell number); assay type: cell-based
Protocol: After 30 hours of treatment with 500 μM fusaric acid, there was a prominent decrease in cell number. DNA synthesis was completely (100%) inhibited by 24 hours. When treated with 500 μM fusaric acid, the majority of the LoVo cells acquired a rounded morphology by 48 hours.
These floating cells were not viable. […] However, after 100 hours, an increase in cell number was noted after 25 additional hours.

[5] = tested on: human breast adenocarcinoma MDA-468 cells; experiment: Effect of fusaric acid on growth (cell number); assay type: cell-based
Protocol: (§2) After 12-24 hours of treatment with 500 μM fusaric acid, there was no further increase in cell number. […] These floating cells were not viable. Within 30 hours of treatment there was a 65% decrease in cell number. […] After 96 hours, less than 10% of the original population remained attached to the dish and no change in cell number was noted after one additional week.

WI-38 cells [6] = experiment: Viability by trypan blue dye exclusion; assay type: cell-based; settings: 500 μM
Protocol: To examine WI-38 cell viability in greater detail, the effects of fusaric acid were studied in logarithmically growing and contact inhibited confluent cells (Tables 2 and 3). In logarithmically growing WI-38 cells approximately 76% of the cells were viable after 30 hours of treatment with fusaric acid. When the cells were treated for 78 hours, only 26% of the cell population survived the pronounced cytotoxic actions of fusaric acid.

LoVo cells [7] = experiment: Viability by trypan blue dye exclusion; assay type: cell-based; settings: 500 μM
Protocol: As in the case of WI-38, LoVo cell viability after fusaric acid treatment was investigated in logarithmically growing and confluent cells, as shown in Tables 2 and 3. In logarithmically growing LoVo cells, approximately 38% of the attached cells were viable after 30 hours of treatment with fusaric acid. When the cells were treated for 78 hours, only 4.5% of the cell population survived the pronounced cytotoxic actions of fusaric acid. […] Thus, LoVo cells are much more sensitive to the cytotoxic actions of fusaric acid in both growing and confluent population of cells in comparison to normal WI-38 cells.

KB cells = experiment: Viability by trypan blue dye exclusion; assay type: cell-based, human; settings: confluent cells, 500 μM, 48 h
Protocol: To examine KB cell viability in greater detail, the effects of fusaric acid were studied in logarithmically growing and confluent cells. In logarithmically growing KB cells 70% of the cells were viable after 48 hours in 500 μM fusaric acid. […] Thus, in contrast to LoVo cells, a significant proportion of the population of growing (70%) cells and virtually all (95%) of confluent KB cells resisted the pronounced cytotoxic action of fusaric acid (See Tables 3 and 4, above).

MDA-468 cells [8] = assay type: cell-based, human
Protocol: As in the case of WI-38, MDA-468 cell viability after fusaric acid treatment was investigated in logarithmically growing and confluent cells. In logarithmically growing MDA-468 cells, less than 20% of the attached cells were viable after 30 hours of treatment with fusaric acid. When the cells were treated for 48 hours, only 0.1% of the cell population survived the pronounced cytotoxic actions of fusaric acid. […] Thus, MDA-468 cells are extremely sensitive to the cytotoxic actions of fusaric acid in both growing and confluent population of cells in comparison to normal WI-38 lines studied.

MDA-468 cells [9] = experiment: DNA synthesis; assay type: cell-based; settings: Homo sapiens, by 24 hr, read-out: DNA synthesis inhibited
Protocol: as §2

[10] = tested on: Prostatic adenocarcinoma cell line; experiment: Viability of other human carcinoma cell types; assay type: cell-based; settings: 48 hours of treatment
Protocol: (§3) As in previous examples, the following human cell lines were inhibited by similar concentrations of fusaric acid: Prostatic adenocarcinoma, skin carcinoma, colon carcinoma, liver adenocarcinoma and lung adenocarcinoma. For all these cell types, cell viability decreased by approximately 60% after 48 hours of treatment with fusaric acid.

[11] = tested on: colon carcinoma cell line; experiment: Viability of other human carcinoma cell types; assay type: cell-based; settings: 48 hours of treatment
Protocol: as §3

[12] = tested on: liver adenocarcinoma cell line; experiment: Viability of other human carcinoma cell types; assay type: cell-based; settings: 48 hours of treatment
Protocol: as §3

[13] = tested on: lung adenocarcinoma cell line; experiment: Viability of other human carcinoma cell types; assay type: cell-based; settings: 48 hours of treatment
Protocol: as §3

skin carcinoma cell line = experiment: Viability of other human carcinoma cell types; assay type: cell-based; settings: 48 hours of treatment
Protocol: as §3

[14] = 500 μM, within 30 hours of treatment
[15] = logarithmic growth, 30 h, listed as Fusaric Acid

In the case of `CCCCc1ccc(C(=O)O)nc1` [fusaric acid], the cytotoxicity (LoVo cells [1]; 1 mM fusaric acid, by 24 hours) is reported as “extensive cytotoxicity”, the “Monolayer Protein” value (LoVo cells [1]; LoVo, 0.5 mM, 48 h) is reported as 90 μg/dish and the “Monolayer Protein” value (WI-38 cells [2]; 24 h) is reported as 236 μg/dish. The “Monolayer Protein” value (WI-38 cells [2]; 48 h) was 202 μg/dish, the “decrease in cell number” value (WI-38 cells [3]; 30 hours with 500 μM, then 4 days in normal media) was 30% and the cells survived (WI-38 cells [3]; after removal of fusaric acid, 500 μM for 30 hours) was greater than 95%. For the same molecule, the “decrease in cell number” value [4, 14] was 60%, the “decline of cell population after removal of the drug” value ([4]; removal after 30 hours, up to approximately 100 hours) was roughly 80% and the “decrease in cell number” value [5, 14] was 65%. For the same molecule, the “original population remaining attached to the dish” value ([5]; drug removed after 30 hours, after 96 hours) was “less than 10%”, the “% Survival” value (WI-38 cells [6]; confluent cells, 48 h) was 100% and the “% Survival” value (WI-38 cells [6]; [15]) was 76.4%. The “% Survival” value (WI-38 cells [6]; logarithmic growth, 78 h) was 26%, the “% Survival” value (LoVo cells [7]; confluent cells, 48 h) was 40% and the “% Survival” value (LoVo cells [7]; logarithmic growth, 30 h) was “approximately 38%”. The “% Survival” value (LoVo cells [7]; [15]) was 38.5%, the “% Survival” value (LoVo cells [7]; logarithmic growth, 78 h) was 4.5% and the “% Survival” value (KB cells) was 95%. The cells survived (MDA-468 cells [8]; confluent cells, 500 μM, 48 hours) was 10%, the attached cells viable (MDA-468 cells [8]; logarithmic growth, 30 hours) was “less than 20%” and the cell population survived (MDA-468 cells [8]; logarithmic growth, 48 hours) was 0.1%. For the same molecule, the inhibition at 500 µM (MDA-468 cells [9]) was 100%, the cell viability decreased [10] was “approximately 60%” and the cell viability decreased [11] was “approximately 60%”. The cell viability decreased [12] was “approximately 60%”, the cell viability decreased [13] was “approximately 60%” and the cell viability decreased (skin carcinoma cell line) was “approximately 60%”.
